A word on the IC50: it is the concentration that inhibits the measured activity by half.

Chain of Jak2 (a.a. 828-1132) (O60674 828-1132): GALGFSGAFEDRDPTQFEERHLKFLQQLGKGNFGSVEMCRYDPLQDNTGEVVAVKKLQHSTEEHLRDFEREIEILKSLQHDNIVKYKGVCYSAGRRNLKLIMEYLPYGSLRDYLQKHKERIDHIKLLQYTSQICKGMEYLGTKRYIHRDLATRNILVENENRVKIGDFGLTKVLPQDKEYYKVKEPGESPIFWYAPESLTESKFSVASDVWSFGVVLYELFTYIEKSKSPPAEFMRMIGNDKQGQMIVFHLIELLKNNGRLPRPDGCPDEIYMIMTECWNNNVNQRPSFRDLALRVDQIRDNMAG

The target of the test is Jak2 (a.a. 828-1132) (Homo sapiens (Human), UniProt O60674). Description: In vitro JAK kinase assay (HTRF, phosphorylation of a biotinylated peptide), JAK2. The format is biochemical. Conditions: measured at 1 mM ATP. The method, then:
Compounds herein were tested for inhibitory activity of JAK targets according to the following in vitro assay described in Park et al., Analytical Biochemistry 1999, 269, 94-104. The catalytic domains of human JAK1 (a.a. 837-1142), Jak2 (a.a. 828-1132) and Jak3 (a.a. 781-1124) with an N-terminal His tag were expressed using baculovirus in insect cells and purified. The catalytic activity of JAK1, JAK2 or JAK3 was assayed by measuring the phosphorylation of a biotinylated peptide. The phosphorylated peptide was detected by homogenous time resolved fluorescence (HTRF). […] Reactions were carried out at room temperature for 1 hr and then stopped with 20 μL 45 mM EDTA, 300 nM SA-APC, 6 nM Eu-Py20 in assay buffer (Perkin Elmer, Boston, Mass.). Binding to the Europium labeled antibody took place for 40 minutes and HTRF signal was measured on a Fusion plate reader (Perkin Elmer, Boston, Mass.).
A general note: In TR-FRET formats the signal depends on donor and acceptor labels being close together.
`CSc1ccc(C(=O)N2CCC(N3CC(CC#N)(n4cc(-c5ncnc6[nH]ccc56)cn4)C3)CC2)cc1F` [Example 62, {1-{1-[3-fluoro-4-(methylthio)benzoyl]piperidin-4-yl}-3-[4-(7H-pyrrolo[2,3-d]pyrimidin-4-yl)-1H-pyrazol-1-yl]azetidin-3-yl}acetonitrile] came in with an IC50 of 0.05 to 0.1 µM.
Molecule `N#CCC1(n2cc(-c3ncnc4[nH]ccc34)cn2)CN(C2CCN(C(=O)c3ccc(C#N)c(F)c3)CC2)C1` [Example 66, 4-[(4-{3-(cyanomethyl)-3-[4-(7H-pyrrolo[2,3-d]pyrimidin-4-yl)-1H-pyrazol-1-yl]azetidin-1-yl}piperidin-1-yl)carbonyl]-2-fluorobenzonitrile] gave an IC50 of 0.05 to 0.1 µM.
In the case of `COc1cc(C(F)(F)F)sc1C(=O)N1CCC(N2CC(CC#N)(n3cc(-c4ncnc5[nH]ccc45)cn3)C2)CC1` [Example 70, {1-{1-[3-methoxy-5-(trifluoromethyl)-2-thienylcarbonyl]piperidin-4-yl}-3-[4-(7H-pyrrolo[2,3-d]pyrimidin-4-yl)-1H-pyrazol-1-yl]azetidin-3-yl}acetonitrile] it was at most 0.01 µM; in that of `Cc1ccc(C#N)c(N2CCC(C(=O)N3CCC(N4CC(CC#N)(n5cc(-c6ncnc7[nH]ccc67)cn5)C4)CC3)CC2)n1` [Example 108, 2-{4-[(4-{3-(cyanomethyl)-3-[4-(7H-pyrrolo[2,3-d]pyrimidin-4-yl)-1H-pyrazol-1-yl]azetidin-1-yl}piperidin-1-yl)carbonyl]piperidin-1-yl}-6-methylnicotinonitrile], 0.01 to 0.05 µM; in that of `N#CCC1(n2cc(-c3ncnc4[nH]ccc34)cn2)CN(C2CCN(C(=O)c3ccc(-c4nccs4)c(F)c3)CC2)C1` [Example 122, {1-{1-[3-fluoro-4-(1,3-thiazol-2-yl)benzoyl]piperidin-4-yl}-3-[4-(7H-pyrrolo[2,3-d]pyrimidin-4-yl)-1H-pyrazol-1-yl]azetidin-3-yl}acetonitrile], 0.01 to 0.05 µM.
In the case of `N#CCC1(n2cc(-c3ncnc4[nH]ccc34)cn2)CN(C2CC3CCC(C2)N3C(=O)C2CCC(F)(F)CC2)C1` (stereo not shown) [Example 148, {1-{8-[(4,4-difluorocyclohexyl)carbonyl]-8-azabicyclo[3.2.1]oct-3-yl}-3-[4-(7H-pyrrolo[2,3-d]pyrimidin-4-yl)-1H-pyrazol-1-yl]azetidin-3-yl}acetonitrile] it was at most 0.01 µM.
Consider `CS(=O)(=O)N1CCC(N2CC(CC#N)(n3cc(-c4ncnc5[nH]ccc45)cn3)C2)CC1` [Example 254, {1-[1-(methylsulfonyl)piperidin-4-yl]-3-[4-(7H-pyrrolo[2,3-d]pyrimidin-4-yl)-1H-pyrazol-1-yl]azetidin-3-yl}acetonitrile], for which the IC50 was in the range of 0.01 to 0.05 µM.
In the case of `CCS(=O)(=O)N1CCC(N2CC(CC#N)(n3cc(-c4ncnc5[nH]ccc45)cn3)C2)CC1` [Example 255, {1-[1-(ethylsulfonyl)piperidin-4-yl]-3-[4-(7H-pyrrolo[2,3-d]pyrimidin-4-yl)-1H-pyrazol-1-yl]azetidin-3-yl}acetonitrile] it was 0.01 to 0.05 µM; in that of `N#CCC1(n2cc(-c3ncnc4[nH]ccc34)cn2)CN(C2CCN(S(=O)(=O)C3CC3)CC2)C1` [Example 256, {1-[1-(cyclopropylsulfonyl)piperidin-4-yl]-3-[4-(7H-pyrrolo[2,3-d]pyrimidin-4-yl)-1H-pyrazol-1-yl]azetidin-3-yl}acetonitrile], 0.01 to 0.05 µM; in that of `N#CCC1(n2cc(-c3ncnc4[nH]ccc34)cn2)CN(C2CCN(C(=O)OCC3CCCCC3)CC2)C1` [Example 397, cyclohexylmethyl 4-{3-(cyanomethyl)-3-[4-(7H-pyrrolo[2,3-d]pyrimidin-4-yl)-1H-pyrazol-1-yl]azetidin-1-yl}piperidine-1-carboxylate], 0.01 to 0.05 µM.
